# In patent publication US20250326726A1, “FERROPTOSIS INHIBITORS-PHENOXAZINE ACETAMIDES” (SIRONAX (BEIJING) CO., LTD., priority 2023, published 2025):
# Tested on: HT-1080 cells
# Assay: RSL3-induced HT-1080 cells ferroptosis assay (10% FBS)
# Format: cell-based
substance,measurement,value
5-(dimethylamino)-N-((8-(trifluoromethyl)-10H-phenoxazin-3-yl)methyl)pentanamide [Compound 57],Bioactivity (RSL3-induced HT-1080 cells ferroptosis assay (10% FBS)),1 to 100 nM
